The results in this text go back to PubChem BioAssay AID1963972 (Molecular Pharmacology Branch, DTP, NCI, 2024).

“And” between values parts separate entries of the source, which are not always exact repeats. Identical values can stand only once.

The subject of the assay is 945468-187-T-J2-PDC spheroids viability. As to the kind of experiment: Anticancer human tumor 945468-187-T-J2-PDC patient-derived rectal carcinoma cell line growth inhibition [PI3K]. The following applies: spheroids with HUVEC and MSC; for viability, T/C: stronger effect = lower value. From the text:
Combinatorial screen of targeted agents with the PI3K inhibitors inavolisib, alpelisib, duvelisib, and copanlisib in multi-cell type tumor spheroids
A high-throughput screen of multi-cell type tumor spheroids was designed to identify active combinations of targeted small molecules and PI3K pathway inhibitors. Complex spheroids include a stromal component modeled by human endothelial cells (HUVEC) and fibroblasts modeled by human mesenchymal stem cells (MSCs). The concentration ranges selected for each drug and investigational agent were based upon clinically achievable concentrations if the clinical Cmax of the agent was known.
Compounds. The drugs and investigational agents: inavolisib (NSC800729), alpelisib (NSC765974), duvelisib (NSC772469), copanlisib (NSC816437), ipatasertib (NSC767898), afuresertib (NSC778305), talazoparib (NSC767125), sapanisertib (NSC764658), selumetinib (NSC741078), tovorafenib (DAY101, NSC766906), vemurafenib (NSC761431), ravoxertinib (NSC781343), sotorasib (NSC818433), MRTX1133 (NSC 836407), abemaciclib (NSC 768073), palbociclib (NSC758247), venetoclax (NSC 766270), SY5609 (NSC837396), enzalutamide (NSC755605), and darolutamide (NSC825331), were obtained from the National Cancer Institute (NCI) Developmental Therapeutics Program Chemical Repository. The FDA-approved anticancer drug set is available from the NCI Developmental Therapeutics Program. […] The stock solutions were prepared in dimethyl sulfoxide (DMSO, Sigma-Aldrich, St. Louis, MO, cat. D2650) at 800-fold the tested concentration and stored at -70 degrees C prior to their use. All drugs and investigational agents were tested over a range starting from a high concentration at or near the clinical Cmax and decreasing in half-log increments. If the clinical Cmax for an agent had not been determined, the highest concentration tested was 10 microM.
Cell Culture. All cells were maintained in an incubator at 37 degrees C and 5% CO2 with 95% humidity. The PDC lines were cultured according to standard operating procedures established by the NCI PDMR (https://pdmr.cancer.gov/sops/default.htm). All PDCs were thawed and cultured in Matrigel-coated flasks prepared with a working solution of 1X Ham's F-12 nutrient mix, without supplementation (Invitrogen, Waltham, MA, cat. 11765054), 100 U/mL penicillin-streptomycin (Invitrogen, cat. 15140122), and 2.5% Matrigel (Corning Inc., Corning, NY, cat. 354248) for the first three passages. The 354836-022-R-J1-PDC, 475296-252-R-J1-PDC, and 997726-040-R-J2-PDC lines were cultured in 6A media, which includes advanced DMEM/F-12 (Thermo Fisher Scientific, cat. 12634028), 10 mM HEPES (Thermo Fisher Scientific, cat. 15630080), 1X GlutaMAX supplement (Thermo Fisher Scientific, cat. 35050061), 0.1 mg/mL primocin (InvivoGen, San Diego, CA, cat. ant-pm-2), 10% defined fetal bovine serum, heat inactivated (HyClone Laboratories Inc., Logan, UT, cat. SH30070.03HI), 50% L-WRN conditioned media (ATCC, cat. CRL-3276), 1.25 mM N-Acetyl-L-cysteine (Sigma-Aldrich, cat. A9165), 10 mM nicotinamide (Sigma-Aldrich, cat. N0636), 1X B-27 supplement (Thermo Fisher Scientific, cat. 17504044), 1X N-2 supplement (Thermo Fisher Scientific, cat. 17502048), and 10 microM Y-27632 dihydrochloride (Tocris Bioscience, Bristol, United Kingdom, cat. 1254). The 624824-186-R-J2-PDC line was cultured in 6C/Colon 1B media, which includes all 6A media components plus 50 ng/mL human EGF recombinant protein (Thermo Fisher Scientific, cat. PHG0311). […]

Setting [1] is: compound alone, run of 04/24/2023.
Where [2] appears, read: compound alone, run of 04/25/2023.
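Note: spheroids exposed to compounds for seven days before reading.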

Consider `C#Cc1c(F)ccc2cc(O)cc(-c3ncc4c(N5CC6CCC(C5)N6)nc(OCC56CCCN5CC(F)C6)nc4c3F)c12` (stereo not given), for which the viability, T/C is, setting by setting: (compound 0.0316 µM) 109% [middle of 4 runs]; (compound 0.316 µM) 106% (2×) and 90.2% and 116%. Also, where the note is “curve of compound”, the IC50 is greater than 10 µM.
Consider `C=CC(=O)N1CCN(c2nc(=O)n(-c3c(C)ccnc3C(C)C)c3nc(-c4c(O)cccc4F)c(F)cc23)C(C)C1` (stereo not given), for which the viability, T/C is, setting by setting: (compound 0.1 µM) 104% [middle of 4 runs]; (compound 0.316 µM) 95.7% [middle of 4 runs]; (compound 3.16 µM) 104% (2×) and 113% and 89.9%; (compound 10 µM) 107% [middle of 4 runs]. Moreover, the IC50 (curve of compound) was greater than 10 µM.
As for `CC(=O)c1c(C)c2cnc(Nc3ccc(N4CCNCC4)cn3)nc2n(C2CCCC2)c1=O`, the viability, T/C reads like this: (compound 0.000316 µM) 105% [middle of 4 runs]; (compound 0.00316 µM) 90.6% [middle of 4 runs]; (compound 0.01 µM) 104% [middle of 4 runs]. Further, where the note is “curve of compound”, the half-inhibitory concentration (IC50) is greater than 0.1 µM.
For `CC(C)NCC(C(=O)N1CCN(c2ncnc3c2C(C)CC3O)CC1)c1ccc(Cl)cc1` (stereo not given), the viability, T/C was 91.8% [middle of 4 runs] (compound 0.1 µM), 90.2% [middle of 4 runs] (compound 0.316 µM), 103% [middle of 4 runs] (compound 1 µM) and 99.7% [middle of 4 runs] (compound 3.16 µM). Further, the half-inhibitory concentration (IC50) (curve of compound) is greater than 10 µM.
`CC(C)n1nc(-c2ccc3oc(N)nc3c2)c2c(N)ncnc21`: the viability, T/C was 92.3% [middle of 4 runs] (compound 0.001 µM), 94.4% [middle of 4 runs] (compound 0.0316 µM) and 71.9% [middle of 4 runs] (compound 0.1 µM). Besides, the concentration for half-maximal inhibition (IC50) (curve of compound) is greater than 0.1 µM.
As for `CC(Cn1ccc(-c2ccc(C#N)c(Cl)c2)n1)NC(=O)c1cc(C(C)O)[nH]n1` (stereo not given), the viability, T/C (compound 3.16 µM) is 93.7% [middle of 4 runs]. Further, the IC50 (curve of compound) was greater than 10 µM.
Turning to `CC(Nc1ccc2c(c1)OCCn1cc(N3C(=O)OCC3C(F)F)nc1-2)C(N)=O` (stereo not given), the viability, T/C was 99% [middle of 8 runs] (compound 0.01 µM), 106% [middle of 8 runs] (compound 0.1 µM), 91.7% [middle of 8 runs] (compound 0.316 µM) and 76.9% [middle of 8 runs] (compound 1 µM). Further, under setting [1], the concentration for half-maximal inhibition (IC50) is greater than 1 µM.
Consider `CC(Nc1ncnc2nc[nH]c12)c1cc2cccc(Cl)c2c(=O)n1-c1ccccc1` (stereo not given), for which the viability, T/C runs as follows: (compound 0.1 µM) 91.9% [middle of 8 runs]; (compound 0.316 µM) 96.3% [middle of 8 runs]; (compound 10 µM) 103% [middle of 8 runs]. Further, under setting [2], the concentration for half-maximal inhibition (IC50) was greater than 10 µM.
As for `CC1(C)CCC(CN2CCN(c3ccc(C(=O)NS(=O)(=O)c4ccc(NCC5CCOCC5)c([N+](=O)[O-])c4)c(Oc4cnc5[nH]ccc5c4)c3)CC2)=C(c2ccc(Cl)cc2)C1`, the viability, T/C runs as follows: (compound 0.316 µM) 94.6% [middle of 4 runs]; (compound 1 µM) 103% [middle of 4 runs]; (compound 3.16 µM) 96.3% [middle of 4 runs]. Under “curve of compound”, the IC50 was greater than 10 µM.
Turning to `CC1(C)CCC(Nc2ncc(C(F)(F)F)c(-c3c[nH]c4c(P(C)(C)=O)c(C#N)ccc34)n2)CN1` (stereo not given), the viability, T/C (compound 0.0316 µM) is 94.2% (2×) and 113% and 89.1%; the viability, T/C (compound 0.1 µM) was 96.6% [middle of 4 runs]; the viability, T/C (compound 3.16 µM) was 43% [middle of 4 runs].
Consider `CCCS(=O)(=O)Nc1ccc(F)c(C(=O)c2c[nH]c3ncc(-c4ccc(Cl)cc4)cc23)c1F`, for which the viability, T/C reads like this: (compound 0.0316 µM) 104% [middle of 4 runs]; (compound 0.1 µM) 88.8% [middle of 4 runs]; (compound 0.316 µM) 94% [middle of 4 runs]; (compound 1 µM) 99.4% [middle of 4 runs]; (compound 10 µM) 5.55% [middle of 4 runs]. Also, under “curve of compound”, the 50% inhibitory concentration (IC50) was 5.05 µM [middle of 4 runs].
In the case of `CCN1CCN(Cc2ccc(Nc3ncc(F)c(-c4cc(F)c5nc(C)n(C(C)C)c5c4)n3)nc2)CC1`, the viability, T/C reads like this: (compound 0.00316 µM) 98.9% [middle of 4 runs]; (compound 0.316 µM) 98.3% [middle of 4 runs]; (compound 1 µM) 78% [middle of 4 runs]. Besides, the half-maximal inhibitory concentration (IC50) (curve of compound) was greater than 1 µM.
As for `CNC(=O)c1ccc(N2C(=S)N(c3ccc(C#N)c(C(F)(F)F)c3)C(=O)C2(C)C)cc1F`, the viability, T/C runs as follows: (compound 0.0316 µM) 92.1% [middle of 4 runs]; (compound 0.1 µM) 106% (2×) and 93.2% and 121%; (compound 0.316 µM) 89% [middle of 4 runs]; (compound 1 µM) 85.3% [middle of 4 runs]; (compound 3.16 µM) 91.6% [middle of 4 runs]. Also, the IC50 (curve of compound) was greater than 10 µM.
On to `COc1c(OCCCN2CCOCC2)ccc2c3n(c(=NC(=O)c4cnc(N)nc4)nc12)CCN3`, for which the viability, T/C runs as follows: (compound 0.00316 µM) 102% [middle of 8 runs]; (compound 0.316 µM) 40.8% [middle of 8 runs]; (compound 1 µM) 22.5% [middle of 8 runs]. For the same molecule, the IC50 under setting [2] was 250 nM [middle of 7 runs].
Regarding `C[C@@H](NC(=O)c1ncnc(N)c1Cl)c1ncc(C(=O)Nc2cc(C(F)(F)F)c(Cl)cn2)s1`, the viability, T/C is 115% [middle of 4 runs] (compound 0.0316 µM), 95.1% [middle of 4 runs] (compound 0.1 µM), 107% [middle of 4 runs] (compound 0.316 µM) and 94.3% [middle of 4 runs] (compound 10 µM). Further, the IC50 (curve of compound) was greater than 10 µM.
For `Cc1nc(NC(=O)N2CCCC2C(N)=O)sc1-c1ccnc(C(C)(C)C(F)(F)F)c1` (stereo not given), the viability, T/C runs as follows: (compound 0.0316 µM) 95.8% [middle of 8 runs]; (compound 0.1 µM) 97.5% [middle of 8 runs]. Further, the half-maximal inhibitory concentration (IC50) under setting [1] was greater than 10 µM.
Consider `Cn1cnc2c(F)c(Nc3ccc(Br)cc3Cl)c(C(=O)NOCCO)cc21`, for which the viability, T/C (compound 0.949 µM) is 83.3% [middle of 4 runs] and the viability, T/C (compound 3 µM) was 79.8% [middle of 4 runs]. Further, the IC50 (curve of compound) was greater than 3 µM.
Regarding `Cn1ncc(Cl)c1-c1cc(C(=O)NC(CN)Cc2cccc(F)c2)sc1Cl` (stereo not given), the viability, T/C is 90.9% [middle of 4 runs] (compound 0.1 µM), 84.6% [middle of 4 runs] (compound 1 µM) and 76.5% [middle of 4 runs] (compound 3.16 µM). In addition, the half-maximal inhibitory concentration (IC50) (curve of compound) was greater than 10 µM.
Take `Cn1nccc1Nc1nccc(-c2ccn(C(CO)c3ccc(Cl)c(F)c3)c(=O)c2)n1` (stereo not given): the viability, T/C is 101% [middle of 4 runs] (compound 0.1 µM); 101% (2×) and 108% and 94.5% (compound 0.316 µM); 94.1% [middle of 4 runs] (compound 3.16 µM); 78.3% [middle of 4 runs] (compound 10 µM). Also, the IC50 (curve of compound) is greater than 10 µM.
`Cn1ncnc1[C@H]1c2n[nH]c(=O)c3cc(F)cc(c23)N[C@@H]1c1ccc(F)cc1`: the viability, T/C runs as follows: (compound 0.000316 µM) 105% [middle of 4 runs]; (compound 0.00316 µM) 93.9% [middle of 4 runs]; (compound 0.01 µM) 88.9% [middle of 4 runs]; (compound 0.0316 µM) 110% (2×) and 104% and 93.3%; (compound 0.1 µM) 104% [middle of 4 runs]. Moreover, the IC50 (curve of compound) is greater than 0.1 µM.
